Structures are written as SMILES. Like-named read-outs stand apart in the source and are kept apart here.

The target in this assay is T1, human LPA1 (Homo sapiens, UniProt Q92633).
T1 construct: expressed in transfected cells; host or cells: Chinese hamster ovary (CHO) cells
The experiment in a line: LPA1 functional antagonist assay (LPA-induced calcium flux). The class given is cell-based. To be noted: read-out: hLPA1 IC50. In a few lines:
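CHO cells overexpressing human LPA1, loaded with calcium dye 30 min at 37° C, were preincubated 20 min at room temperature with compound (0.08 nM–5 μM, 0.5% DMSO) in HBSS/20 mM HEPES/0.1% fatty acid-free BSA.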
(A change in cytosolic calcium serves as a functional read-out for many receptors and channels.)

[1] abbreviates: CHO cells overexpressing human LPA1, inhibition of calcium flux induced by 10 nM LPA.

T1 sequence (Q92633 whole entry): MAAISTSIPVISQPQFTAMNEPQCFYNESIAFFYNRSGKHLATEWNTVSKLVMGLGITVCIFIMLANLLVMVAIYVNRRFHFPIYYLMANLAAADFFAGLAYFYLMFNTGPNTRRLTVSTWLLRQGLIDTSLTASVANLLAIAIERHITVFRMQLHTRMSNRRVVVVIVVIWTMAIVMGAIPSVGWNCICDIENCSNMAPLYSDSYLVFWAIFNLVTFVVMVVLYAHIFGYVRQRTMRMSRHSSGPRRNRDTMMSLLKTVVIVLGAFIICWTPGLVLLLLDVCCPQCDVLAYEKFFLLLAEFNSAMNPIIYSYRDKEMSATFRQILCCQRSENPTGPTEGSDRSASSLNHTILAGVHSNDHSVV

Consider `Cc1nc(-c2nnn(C)c2COC(=O)N(C)[C@H](C)c2ccccc2)ccc1O[C@H]1CCC[C@H](C(=O)O)C1` [Example 19, (1S,3S)-3-((2-methyl-6-(1-methyl-5-(((methyl((R)-1-phenylethyl)carbamoyl)oxy)methyl)-1H-1,2,3-triazol-4-yl)pyridin-3-yl)oxy)cyclohexane-1-carboxylic acid], for which the half-maximal inhibitory concentration (IC50) (usually the concentration at which inhibition is half-maximal) is 17 nM.
As to `Cc1nc(-c2nnn(C)c2COC(=O)N2CC3CCC2C3)ccc1O[C@H]1CCC[C@H](C(=O)O)C1` (stereo partly drawn) [Example 148, (1S,3S)-3-((6-(5-(((-2-azabicyclo[2.2.1]heptane-2-carbonyl)oxy)methyl)-1-methyl-1H-1,2,3-triazol-4-yl)-2-methylpyridin-3-yl)oxy)cyclohexane-1-carboxylic acid], the IC50 amounted to 325 nM.
Same read-out and setting: the value for `Cc1nc(-c2nnn(C)c2COC(=O)N2CCC3(CC3)C2)ccc1O[C@H]1CCC[C@H](C(=O)O)C1` [Example 144, (1S,3S)-3-((6-(5-(((5-azaspiro[2.4]heptane-5-carbonyl)oxy)methyl)-1-methyl-1H-1,2,3-triazol-4-yl)-2-methylpyridin-3-yl)oxy)cyclohexane-1-carboxylic acid] was 89 nM.
The same measure, in the same setting: the value for `Cc1nc(-c2nnn(C)c2COC(=O)N(C)[C@H](C)C2CC2)ccc1O[C@H]1CCC[C@H](C(=O)O)C1` [Example 29, (1S,3S)-3-((6-(5-(((((R)-1-cyclopropylethyl)(methyl)carbamoyl)oxy)methyl)-1-methyl-1H-1,2,3-triazol-4-yl)-2-methylpyridin-3-yl)oxy)cyclohexane-1-carboxylic acid] was 41 nM.
As for `CN(C(=O)OCc1c(-c2cnc(O[C@H]3CCC[C@H](C(=O)O)C3)cn2)nnn1C)C1CCCC1` [Example 215, (1S,3S)-3-((5-(5-(((cyclopentyl(methyl)carbamoyl)oxy)methyl)-1-methyl-1H-1,2,3-triazol-4-yl)pyrazin-2-yl)oxy)cyclohexane-1-carboxylic acid], the IC50 under setting [1] was 84 nM.
Regarding `Cn1nnc(-c2ccc(O[C@H]3CCC[C@H](C(=O)O)C3)cn2)c1COC(=O)N1CCC2(CCC2)C1` [Example 175, (1S,3S)-3-((6-(5-(((6-azaspiro[3.4]octane-6-carbonyl)oxy)methyl)-1-methyl-1H-1,2,3-triazol-4-yl)pyridin-3-yl)oxy)cyclohexane-1-carboxylic acid], the IC50 (human LPA1) was found to be 703 nM.
As to `CC(C1CCC1)N(C)C(=O)OCc1c(-c2ccc(O[C@H]3CCC[C@H](C(=O)O)C3)cc2)nnn1C` (mixture of isomers) [Example 54, (1S,3S)-3-(4-(5-((((1-cyclobutylethyl)(methyl)carbamoyl)oxy)methyl)-1-methyl-1H-1,2,3-triazol-4-yl)phenoxy)cyclohexane-1-carboxylic acid], the IC50 amounted to 19 nM.
On to `Cc1nc(-c2nnn(C)c2COC(=O)N2CCCC(C)C2)ccc1O[C@H]1CCC[C@H](C(=O)O)C1` (mixture of isomers) [Example 161, (1S,3S)-3-((2-methyl-6-(1-methyl-5-(((3-methylpiperidine-1-carbonyl)oxy)methyl)-1H-1,2,3-triazol-4-yl)pyridin-3-yl)oxy)cyclohexane-1-carboxylic acid], for which, for the setting “human LPA1”, the IC50 worked out at 178 nM.
`Cc1nc(-c2nnn(C)c2COC(=O)N(C)CCC(C)C)cnc1O[C@H]1CCC[C@H](C(=O)O)C1` [Example 222, (1S,3S)-3-((5-(5-(((isopentyl(methyl)carbamoyl)oxy)methyl)-1-methyl-1H-1,2,3-triazol-4-yl)-3-methylpyrazin-2-yl)oxy)cyclohexane-1-carboxylic acid]: the IC50 under setting [1] was found to be 19 nM.
`CCCC(C)(C)N(C)C(=O)OCc1c(-c2ccc(O[C@H]3CCC[C@H](C(=O)O)C3)cn2)nnn1C` [Example 78, (1S,3S)-3-((6-(1-methyl-5-(((methyl(2-methylpentan-2-yl)carbamoyl)oxy)methyl)-1H-1,2,3-triazol-4-yl)pyridin-3-yl)oxy)cyclohexane-1-carboxylic acid]: the half-inhibitory concentration (IC50) is 27 nM.
On the same count and under the same terms, then `Cc1nc(-c2nnn(C)c2COC(=O)N2CCC(C)C2)ccc1O[C@H]1CCC[C@H](C(=O)O)C1` (mixture of isomers) [Example 147, (1S,3S)-3-((2-methyl-6-(1-methyl-5-(((3-methylpyrrolidine-1-carbonyl)oxy)methyl)-1H-1,2,3-triazol-4-yl)pyridin-3-yl)oxy)cyclohexane-1-carboxylic acid], with 250 nM; and `CCCC1(N(C)C(=O)OCc2c(-c3ccc(O[C@H]4CCC[C@H](C(=O)O)C4)cc3)nnn2C)CC1` [Example 75, (1S,3S)-3-(4-(1-methyl-5-(((methyl(1-propylcyclopropyl)carbamoyl)oxy)methyl)-1H-1,2,3-triazol-4-yl)phenoxy)cyclohexane-1-carboxylic acid], with 20 nM.
`Cc1nc(-c2nnn(C)c2COC(=O)N2CCC(C3CC3)C2)ccc1O[C@H]1CCC[C@H](C(=O)O)C1` (mixture of isomers) [Example 164, (1S,3S)-3-((6-(5-(((3-cyclopropylpyrrolidine-1-carbonyl)oxy)methyl)-1-methyl-1H-1,2,3-triazol-4-yl)-2-methylpyridin-3-yl)oxy)cyclohexane-1-carboxylic acid]: the IC50 (human LPA1) turned out to be 83 nM.
As to `CN(C(=O)OCc1c(-c2ccc(O[C@H]3CCC[C@H](C(=O)O)C3)cc2)nnn1C)C(C1CC1)C1CC1` [Example 74, (1S,3S)-3-(4-(5-((((Dicyclopropylmethyl)(methyl)carbamoyl)oxy)methyl)-1-methyl-1H-1,2,3-triazol-4-yl)phenoxy)cyclohexanecarboxylic acid], the half-maximal inhibitory concentration (IC50) is 100 nM.
In the case of `Cc1nc(-c2nnn(C)c2COC(=O)N(C)C2CC(F)C2)ccc1O[C@H]1CCC[C@H](C(=O)O)C1` (mixture of isomers) [Example 182, (1S,3S)-3-((6-(5-((((3-fluorocyclobutyl)(methyl)carbamoyl)oxy)methyl)-1-methyl-1H-1,2,3-triazol-4-yl)-2-methylpyridin-3-yl)oxy)cyclohexane-1-carboxylic acid], where the note is “human LPA1”, the concentration for half-maximal inhibition (IC50) was found to be 61 nM.
For `CCc1nc(-c2nnn(C)c2COC(=O)N(C)C2CCC2)ccc1O[C@H]1CCC[C@H](C(=O)O)C1` [Example 203, (1S,3S)-3-((6-(5-(((cyclobutyl(methyl)carbamoyl)oxy)methyl)-1-methyl-1H-1,2,3-triazol-4-yl)-2-ethylpyridin-3-yl)oxy)cyclohexane-1-carboxylic acid], the IC50 under setting [1] was determined as 8 nM.
On to `Cc1nc(-c2nnn(C)c2COC(=O)N(C)Cc2cccnc2)ccc1O[C@H]1CCC[C@H](C(=O)O)C1` [Example 120, (1S,3S)-3-((2-methyl-6-(1-methyl-5-(((methyl(pyridin-3-ylmethyl)carbamoyl)oxy)methyl)-1H-1,2,3-triazol-4-yl)pyridin-3-yl)oxy)cyclohexane-1-carboxylic acid], for which the IC50 came out at 809 nM.
Turning to `CN(Cc1ccccc1)C(=O)OCc1c(-c2ccc(O[C@H]3CCC[C@H](C(=O)O)C3)c(C#N)n2)nnn1C` [Example 290, (1S,3S)-3-((6-(5-(((benzyl(methyl)carbamoyl)oxy)methyl)-1-methyl-1H-1,2,3-triazol-4-yl)-2-cyanopyridin-3-yl)oxy)cyclohexane-1-carboxylic acid], the 50% inhibitory concentration (IC50) under setting [1] was found to be 2 nM.
Same read-out and setting: then `CCCCN(C)C(=O)OCc1c(-c2cnc(O[C@H]3CCC[C@H](C(=O)O)C3)c(C)n2)nnn1C` [Example 219, (1S,3S)-3-((5-(5-(((butyl(methyl)carbamoyl)oxy)methyl)-1-methyl-1H-1,2,3-triazol-4-yl)-3-methylpyrazin-2-yl)oxy)cyclohexane-1-carboxylic acid], with 21 nM.
Still for that read-out and setting: the value for `Cc1nc(-c2nnn(C)c2COC(=O)N(C)Cc2ccccc2)cnc1O[C@H]1CCC[C@H](C(=O)O)C1` [Example 228, (1S,3S)-3-((5-(5-(((benzyl(methyl)carbamoyl)oxy)methyl)-1-methyl-1H-1,2,3-triazol-4-yl)-3-methylpyrazin-2-yl)oxy)cyclohexane-1-carboxylic acid] was 60 nM.
Turning to `Cc1nc(-c2nnn(C)c2COC(=O)N(C)CC2CCC2)ccc1O[C@H]1CCC[C@H](C(N)=O)C1` [Example 14, (4-(5-(((1S,3S)-3-carbamoylcyclohexyl)oxy)-6-methylpyridin-2-yl)-1-methyl-1H-1,2,3-triazol-5-yl)methyl (cyclobutylmethyl)(methyl)carbamate], under setting [1], the IC50 was 824 nM.
On to `Cc1nc(-c2nnn(C)c2COC(=O)N(C)C23CC(C2)C3)ccc1O[C@H]1CCC[C@H](C(=O)O)C1` [Example 102, (1S,3S)-3-((6-(5-(((bicyclo[1.1.1]pentan-1-yl(methyl)carbamoyl)oxy)methyl)-1-methyl-1H-1,2,3-triazol-4-yl)-2-methylpyridin-3-yl)oxy)cyclohexane-1-carboxylic acid], for which the 50% inhibitory concentration (IC50) was 53 nM.
Still for that read-out and setting: the value for `Cc1nc(-c2nnn(C)c2COC(=O)NCC2CCC2)ccc1O[C@H]1CCC[C@H](C(=O)O)C1` [Example 108, (1S,3S)-3-((6-(5-((((cyclobutylmethyl)carbamoyl)oxy)methyl)-1-methyl-1H-1,2,3-triazol-4-yl)-2-methylpyridin-3-yl)oxy)cyclohexane-1-carboxylic acid] was 108 nM.
Turning to `Cc1nc(-c2nnn(C)c2COC(=O)NCCCCF)ccc1O[C@H]1CCC[C@H](C(=O)O)C1` [Example 191, (1S,3S)-3-((6-(5-((((4-fluorobutyl)carbamoyl)oxy)methyl)-1-methyl-1H-1,2,3-triazol-4-yl)-2-methylpyridin-3-yl)oxy)cyclohexane-1-carboxylic acid], the IC50 (human LPA1) turned out to be 553 nM.
As for `CC(C)CN(C)C(=O)OCc1c(-c2ccc(O[C@H]3CCC[C@H](C(=O)O)C3)cc2)nnn1C` [Example 53, (1S,3S)-3-(4-(5-(((isobutyl(methyl)carbamoyl)oxy)methyl)-1-methyl-1H-1,2,3-triazol-4-yl)phenoxy)cyclohexane-1-carboxylic acid], the IC50 is 440 nM.

These data come from patent publication US10576062B2, “Carbamoyloxymethyl triazole cyclohexyl acids as LPA antagonists” (Bristol-Myers Squibb Company, priority 2016, dated 2020).
